Assay results from patent US20210353631A1, “1,4-Benzoxazines for the Treatment of Cancers and Other Neurodegenerative Diseases” (Neugeneron LLC, priority 2020, published 2021).
Read-outs that look alike come from different tables or passages of the source. Each block holds one compound with its values, some of them ahead of it.

Columns and labels:
[1] = test system: cell culture models of neurodegeneration; settings: cited from earlier work
[2] = target: T1, GSK3β (Homo sapiens, UniProt P49841); settings: kinome profiling studies; cited from earlier work
[3] = target: cyclin-dependent kinases (CDKs); settings: kinome profiling studies; cited from earlier work
[4] = target: p38 MAPK; settings: kinome profiling studies; cited from earlier work
[5] = test system: panel of 20 kinases; settings: 500 nM; previous analyses; cited from earlier work
[6] = test system: fly model of AD; settings: widely-used fly model of AD; cited from earlier work
[7] = test system: mouse model of HD; settings: cited from earlier work
[8] = target: T2, CSF1R -autoinhibited (Homo sapiens, UniProt P07333); experiment: KINOMEscan kinome profiling (DiscoveRx/Eurofin platform); assay type: binding; settings: read-out: % control
T2 construct: purchased DiscoveRx/Eurofin

[9] = target: T3, EGFR(L747-E749del, A750P) (Homo sapiens, UniProt P00533, A750P/DEL747-749); experiment: as above; assay type: binding; settings: read-out: % control
T3 construct: purchased DiscoveRx/Eurofin

[10] = test system: cortical neurons; experiment: Neuroprotection in cortical neurons treated with homocysteic acid (HCA); assay type: cell-based; settings: cortical neurons treated with HCA (oxidative stress); 5 uM and 25 uM for 18 h; single experiment in duplicate
Protocol: (§1) FIGS. 1A to 1C, show: (FIG. 1A) Chemical structure of NGN-006. (FIG. 1B) Neuroprotection in cerebellar granule neurons (CGNs) induced to die by switching from high potassium (HK) to low potassium (LK) medium. HSB-13 and NGN-006 were added to LK-treated CGNs at 1, 5 and 25 uM concentrations. Viability was measured 24 h later and compared with control survival in HK). Results are means values from a single experiment performed in duplicate. […] (FIG. 1C) Neuroprotection in cortical neurons (CGNs) induced to die by treatment with homocysteic acid (HCA) which induces oxidative stress. Neurons were treated either with HCA alone or HCA with 25 uM HSB-13 or 5 uM and 25 uM NGN-006 for 18 h. Viability was measured 24 h later and compared with survival of control (untreated cells, Unt). Results are mean values from a single experiment performed in duplicate.
(§2) Based on the structure of HSB-13 addition compounds have been synthesized. Among these derivatives was NGN-006 (FIG. 1A). […] Viability was measured 24 h later and compared with control survival in HK). […] Viability was measured 24 h later and compared with survival of control (untreated cells, Unt). […]

[11] = target: T4, DRAK1/STK17a (Homo sapiens, UniProt Q9UEE5); experiment: KINOMEscan kinome profiling (DiscoveRx/Eurofin platform); assay type: binding; settings: KINOMEscan DRAK1 (Entrez STK17A), read-out: % control
T4 construct: purchased DiscoveRx/Eurofin

[12] = target: T5, DYRK1B (Homo sapiens, UniProt Q9Y463); experiment: as above; assay type: binding; settings: read-out: % control
T5 construct: purchased DiscoveRx/Eurofin

[13] = test system: EGFR(L747-T751del,Sins); experiment: as above; assay type: binding; settings: 1 uM
[14] = target: T6, CSNK2A1 (Homo sapiens, UniProt P68400); experiment: as above; assay type: binding; settings: read-out: % control
T6 construct: purchased DiscoveRx/Eurofin

[15] = target: T7, CSNK1G3 (Homo sapiens, UniProt Q9Y6M4); experiment: as above; assay type: binding; settings: read-out: % control
T7 construct: purchased DiscoveRx/Eurofin

[16] = target: T8, DYRK2 (Homo sapiens, UniProt Q92630); experiment: as above; assay type: binding; settings: read-out: % control
T8 construct: purchased DiscoveRx/Eurofin

[17] = target: T9, CLK3 (Homo sapiens, UniProt P49761); experiment: as above; assay type: binding; settings: read-out: % control
T9 construct: purchased DiscoveRx/Eurofin

[18] = target: T10, CSNK1D (Homo sapiens, UniProt P48730); experiment: as above; assay type: binding; settings: read-out: % control
T10 construct: purchased DiscoveRx/Eurofin

[19] = target: T11, CLK2 (Homo sapiens, UniProt P49760); experiment: as above; assay type: binding; settings: read-out: % control
T11 construct: purchased DiscoveRx/Eurofin

[20] = target: T12, CLK1 (Homo sapiens, UniProt P49759); experiment: as above; assay type: binding; settings: read-out: % control
T12 construct: purchased DiscoveRx/Eurofin

[21] = target: T13, CTK (MATK) (Homo sapiens, UniProt P42679); experiment: as above; assay type: binding; settings: KINOMEscan CTK (Entrez MATK), read-out: % control
T13 construct: purchased DiscoveRx/Eurofin

[22] = target: T14, EGFR(L747-S752del, P753S) (Homo sapiens, UniProt P00533, DEL747-752/P753S); experiment: as above; assay type: binding; settings: read-out: % control
T14 construct: purchased DiscoveRx/Eurofin

[23] = target: T15, CSNK2A2 (Homo sapiens, UniProt P19784); experiment: as above; assay type: binding; settings: read-out: % control
T15 construct: purchased DiscoveRx/Eurofin

[24] = target: other members of the DAPK family; experiment: Kinome profiling of NGN-006; assay type: binding
[25] = target: T16, EGFR(G719C) (Homo sapiens, UniProt P00533, G719C); experiment: KINOMEscan kinome profiling (DiscoveRx/Eurofin platform); assay type: binding; settings: read-out: % control
T16 construct: purchased DiscoveRx/Eurofin

[26] = target: T17, EGFR(E746-A750del) (Homo sapiens, UniProt P00533, DEL746-750); experiment: as above; assay type: binding; settings: read-out: % control
T17 construct: purchased DiscoveRx/Eurofin

[27] = target: T1, GSK3β; experiment: Kinome profiling of NGN-006; assay type: binding; settings: kinase that HSB-13 inhibits
[28] = target: T18, DDR1 (Homo sapiens, UniProt Q08345); experiment: KINOMEscan kinome profiling (DiscoveRx/Eurofin platform); assay type: binding; settings: read-out: % control
T18 construct: purchased DiscoveRx/Eurofin

[29] = target: T19, DMPK (Homo sapiens, UniProt Q09013); experiment: as above; assay type: binding; settings: read-out: % control
T19 construct: purchased DiscoveRx/Eurofin

[30] = target: T20, CSNK1G2 (Homo sapiens, UniProt P78368); experiment: as above; assay type: binding; settings: read-out: % control
T20 construct: purchased DiscoveRx/Eurofin

[31] = target: T21, DAPK2 (Homo sapiens, UniProt Q9UIK4); experiment: as above; assay type: binding; settings: read-out: % control
T21 construct: purchased DiscoveRx/Eurofin

[32] = target: CDKs; experiment: Kinome profiling of NGN-006; assay type: binding; settings: kinases that HSB-13 inhibits
[33] = test system: 451 kinases; experiment: Kinome profiling, count of kinases inhibited in the whole panel; assay type: binding; settings: substantially defined as over 36% inhibition at 1 uM
[34] = target: T22, DCAMKL3 (DCLK3) (Homo sapiens, UniProt Q9C098); experiment: KINOMEscan kinome profiling (DiscoveRx/Eurofin platform); assay type: binding; settings: KINOMEscan DCAMKL3 (Entrez DCLK3), read-out: % control
T22 construct: purchased DiscoveRx/Eurofin

[35] = target: p38 MAPK; experiment: Kinome profiling of NGN-006; assay type: binding; settings: kinase that HSB-13 inhibits
[36] = target: T23, CSF1R (Homo sapiens, UniProt P07333); experiment: KINOMEscan kinome profiling (DiscoveRx/Eurofin platform); assay type: binding; settings: read-out: % control
T23 construct: purchased DiscoveRx/Eurofin

[37] = target: T24, DAPK1 (Homo sapiens, UniProt P53355); experiment: as above; assay type: binding; settings: read-out: % control
T24 construct: purchased DiscoveRx/Eurofin

[38] = target: T25, CLK4 (Homo sapiens, UniProt Q9HAZ1); experiment: as above; assay type: binding; settings: read-out: % control
T25 construct: purchased DiscoveRx/Eurofin

[39] = target: T26, DRAK2 (STK17B) (Homo sapiens, UniProt O94768); experiment: as above; assay type: binding
T26 construct: purchased DiscoveRx/Eurofin

[40] = target: T27, CSNK1A1L (Homo sapiens, UniProt Q8N752); experiment: as above; assay type: binding; settings: read-out: % control
T27 construct: purchased DiscoveRx/Eurofin

[41] = target: T28, DCAMKL2 (DCLK2) (Homo sapiens, UniProt Q8N568); experiment: as above; assay type: binding; settings: KINOMEscan DCAMKL2 (Entrez DCLK2), read-out: % control
T28 construct: purchased DiscoveRx/Eurofin

[42] = target: T29, DLK (MAP3K12) (Homo sapiens, UniProt Q12852); experiment: as above; assay type: binding; settings: KINOMEscan DLK (Entrez MAP3K12), read-out: % control
T29 construct: purchased DiscoveRx/Eurofin

[43] = target: T30, CIT (Homo sapiens, UniProt O14578); experiment: as above; assay type: binding; settings: read-out: % control
T30 construct: purchased DiscoveRx/Eurofin

[44] = test system: cerebellar granule neurons (CGNs); experiment: Neuroprotection in cerebellar granule neurons switched from HK to LK medium; assay type: cell-based; settings: 1, 5 and 25 uM, viability 24 h later, single experiment in duplicate
Protocol: as §1, §2

[45] = target: T31, CSNK1G1 (Homo sapiens, UniProt Q9HCP0); experiment: KINOMEscan kinome profiling (DiscoveRx/Eurofin platform); assay type: binding; settings: read-out: % control
T31 construct: purchased DiscoveRx/Eurofin

[46] = target: T32, DAPK3 (Homo sapiens, UniProt O43293); experiment: as above; assay type: binding; settings: read-out: % control
T32 construct: purchased DiscoveRx/Eurofin

[47] = target: T33, DYRK1A (Homo sapiens, UniProt Q13627); experiment: as above; assay type: binding; settings: read-out: % control
T33 construct: purchased DiscoveRx/Eurofin

[48] = target: T34, DDR2 (Homo sapiens, UniProt Q16832); experiment: as above; assay type: binding; settings: read-out: % control
T34 construct: purchased DiscoveRx/Eurofin

[49] = target: T35, DCAMKL1 (DCLK1) (Homo sapiens, UniProt O15075); experiment: as above; assay type: binding; settings: KINOMEscan DCAMKL1 (Entrez DCLK1), read-out: % control
T35 construct: purchased DiscoveRx/Eurofin

[50] = target: T36, DMPK2 (CDC42BPG) (Homo sapiens, UniProt Q6DT37); experiment: as above; assay type: binding; settings: KINOMEscan DMPK2 (Entrez CDC42BPG), read-out: % control
T36 construct: purchased DiscoveRx/Eurofin

[51] = target: T37, CSNK1A1 (Homo sapiens, UniProt P48729); experiment: as above; assay type: binding; settings: read-out: % control
T37 construct: purchased DiscoveRx/Eurofin

[52] = target: T38, CSK (Homo sapiens, UniProt P41240); experiment: as above; assay type: binding; settings: read-out: % control
T38 construct: purchased DiscoveRx/Eurofin

[53] = target: T39, EGFR (Homo sapiens, UniProt P00533); experiment: as above; assay type: binding; settings: read-out: % control
T39 construct: purchased DiscoveRx/Eurofin

[54] = target: T40, EGFR(G719S) (Homo sapiens, UniProt P00533, G719S); experiment: as above; assay type: binding; settings: read-out: % control
T40 construct: purchased DiscoveRx/Eurofin

[55] = target: T41, CSNK1E (Homo sapiens, UniProt P49674); experiment: as above; assay type: binding; settings: read-out: % control
T41 construct: purchased DiscoveRx/Eurofin
T41 sequence (P49674 whole entry): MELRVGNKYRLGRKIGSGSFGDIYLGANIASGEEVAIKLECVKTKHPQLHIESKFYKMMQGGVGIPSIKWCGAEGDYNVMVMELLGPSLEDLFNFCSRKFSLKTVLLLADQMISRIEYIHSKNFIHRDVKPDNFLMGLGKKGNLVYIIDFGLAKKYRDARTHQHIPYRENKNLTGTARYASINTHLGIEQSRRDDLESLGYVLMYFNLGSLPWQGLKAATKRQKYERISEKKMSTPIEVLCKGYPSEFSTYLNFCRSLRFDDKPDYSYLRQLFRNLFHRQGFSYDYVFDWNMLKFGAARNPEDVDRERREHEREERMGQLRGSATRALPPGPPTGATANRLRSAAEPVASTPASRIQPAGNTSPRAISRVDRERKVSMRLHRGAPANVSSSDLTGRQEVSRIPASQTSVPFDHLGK

T1 sequence (P49841 whole entry): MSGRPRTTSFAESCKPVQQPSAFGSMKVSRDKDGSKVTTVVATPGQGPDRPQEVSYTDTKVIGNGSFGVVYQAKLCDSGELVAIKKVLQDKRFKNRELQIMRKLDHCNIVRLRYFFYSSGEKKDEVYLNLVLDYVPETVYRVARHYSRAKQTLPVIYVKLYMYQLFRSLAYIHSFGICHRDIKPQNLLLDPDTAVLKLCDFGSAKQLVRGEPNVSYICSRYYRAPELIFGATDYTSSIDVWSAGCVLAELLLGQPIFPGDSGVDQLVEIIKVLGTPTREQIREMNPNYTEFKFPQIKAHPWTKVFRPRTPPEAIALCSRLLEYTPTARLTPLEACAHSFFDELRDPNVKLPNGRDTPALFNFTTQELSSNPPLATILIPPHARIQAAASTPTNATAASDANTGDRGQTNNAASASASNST
T26 sequence (O94768 whole entry): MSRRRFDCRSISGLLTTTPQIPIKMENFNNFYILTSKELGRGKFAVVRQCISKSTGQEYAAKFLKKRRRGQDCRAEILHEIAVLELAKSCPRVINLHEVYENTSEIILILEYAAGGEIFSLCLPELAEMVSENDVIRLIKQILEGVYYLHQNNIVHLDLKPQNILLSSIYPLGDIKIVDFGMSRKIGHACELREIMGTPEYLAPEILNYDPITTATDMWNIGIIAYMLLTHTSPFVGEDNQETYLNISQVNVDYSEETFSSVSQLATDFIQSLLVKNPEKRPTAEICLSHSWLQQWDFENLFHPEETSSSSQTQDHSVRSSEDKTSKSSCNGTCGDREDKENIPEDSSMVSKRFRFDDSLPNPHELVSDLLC
T5 sequence (Q9Y463 whole entry): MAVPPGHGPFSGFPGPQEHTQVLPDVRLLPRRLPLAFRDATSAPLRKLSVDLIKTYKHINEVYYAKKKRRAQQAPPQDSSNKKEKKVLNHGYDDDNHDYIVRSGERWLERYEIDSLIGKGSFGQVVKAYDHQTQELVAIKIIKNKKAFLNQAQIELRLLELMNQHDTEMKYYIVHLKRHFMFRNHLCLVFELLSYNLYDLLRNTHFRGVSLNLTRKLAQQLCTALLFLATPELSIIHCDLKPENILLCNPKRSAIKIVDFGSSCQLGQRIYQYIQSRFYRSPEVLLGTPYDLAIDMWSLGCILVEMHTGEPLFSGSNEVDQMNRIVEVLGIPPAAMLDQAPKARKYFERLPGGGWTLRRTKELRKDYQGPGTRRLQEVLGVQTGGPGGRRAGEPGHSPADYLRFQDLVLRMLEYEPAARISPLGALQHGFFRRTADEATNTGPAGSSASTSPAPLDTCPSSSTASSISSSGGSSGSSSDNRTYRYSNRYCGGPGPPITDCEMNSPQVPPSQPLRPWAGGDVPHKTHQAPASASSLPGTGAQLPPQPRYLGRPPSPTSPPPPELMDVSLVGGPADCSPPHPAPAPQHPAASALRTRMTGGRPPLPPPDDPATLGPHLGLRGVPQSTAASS
T31 sequence (Q9HCP0 whole entry): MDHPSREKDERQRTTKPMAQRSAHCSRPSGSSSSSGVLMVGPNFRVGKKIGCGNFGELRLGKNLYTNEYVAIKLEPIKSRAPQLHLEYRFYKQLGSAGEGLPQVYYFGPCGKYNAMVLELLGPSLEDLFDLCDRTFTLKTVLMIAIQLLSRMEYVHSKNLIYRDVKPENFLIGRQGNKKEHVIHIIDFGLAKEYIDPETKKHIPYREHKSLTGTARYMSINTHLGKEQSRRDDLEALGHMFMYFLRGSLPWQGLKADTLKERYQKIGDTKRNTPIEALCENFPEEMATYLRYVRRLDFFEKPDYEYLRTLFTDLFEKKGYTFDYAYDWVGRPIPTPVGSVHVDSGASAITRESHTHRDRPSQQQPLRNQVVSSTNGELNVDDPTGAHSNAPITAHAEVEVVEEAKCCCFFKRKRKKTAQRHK
T21 sequence (Q9UIK4 whole entry): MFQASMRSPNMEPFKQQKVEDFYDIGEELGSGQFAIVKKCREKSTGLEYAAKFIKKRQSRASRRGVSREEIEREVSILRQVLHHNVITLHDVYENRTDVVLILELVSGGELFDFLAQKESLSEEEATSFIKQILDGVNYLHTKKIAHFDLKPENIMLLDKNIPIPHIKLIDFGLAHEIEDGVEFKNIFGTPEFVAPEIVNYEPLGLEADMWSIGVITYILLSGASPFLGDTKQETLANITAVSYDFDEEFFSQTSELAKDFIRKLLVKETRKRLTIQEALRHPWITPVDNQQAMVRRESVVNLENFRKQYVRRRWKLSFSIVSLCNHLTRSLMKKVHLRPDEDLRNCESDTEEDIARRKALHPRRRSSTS
T8 sequence (Q92630 whole entry): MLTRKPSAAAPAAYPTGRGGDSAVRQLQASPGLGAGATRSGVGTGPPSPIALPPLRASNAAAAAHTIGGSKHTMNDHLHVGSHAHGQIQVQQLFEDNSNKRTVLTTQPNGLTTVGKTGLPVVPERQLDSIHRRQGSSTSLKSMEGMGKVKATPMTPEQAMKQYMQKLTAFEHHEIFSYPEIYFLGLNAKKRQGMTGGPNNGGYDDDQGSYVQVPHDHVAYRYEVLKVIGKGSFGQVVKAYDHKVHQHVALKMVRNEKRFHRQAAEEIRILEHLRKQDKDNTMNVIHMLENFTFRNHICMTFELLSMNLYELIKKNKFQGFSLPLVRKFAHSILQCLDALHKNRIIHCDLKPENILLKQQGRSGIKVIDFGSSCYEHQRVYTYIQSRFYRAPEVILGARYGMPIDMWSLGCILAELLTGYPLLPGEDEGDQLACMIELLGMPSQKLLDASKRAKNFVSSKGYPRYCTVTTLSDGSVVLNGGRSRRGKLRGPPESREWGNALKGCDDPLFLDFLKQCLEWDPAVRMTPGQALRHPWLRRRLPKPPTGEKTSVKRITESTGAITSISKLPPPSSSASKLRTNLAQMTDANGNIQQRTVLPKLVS
T19 sequence (Q09013 whole entry): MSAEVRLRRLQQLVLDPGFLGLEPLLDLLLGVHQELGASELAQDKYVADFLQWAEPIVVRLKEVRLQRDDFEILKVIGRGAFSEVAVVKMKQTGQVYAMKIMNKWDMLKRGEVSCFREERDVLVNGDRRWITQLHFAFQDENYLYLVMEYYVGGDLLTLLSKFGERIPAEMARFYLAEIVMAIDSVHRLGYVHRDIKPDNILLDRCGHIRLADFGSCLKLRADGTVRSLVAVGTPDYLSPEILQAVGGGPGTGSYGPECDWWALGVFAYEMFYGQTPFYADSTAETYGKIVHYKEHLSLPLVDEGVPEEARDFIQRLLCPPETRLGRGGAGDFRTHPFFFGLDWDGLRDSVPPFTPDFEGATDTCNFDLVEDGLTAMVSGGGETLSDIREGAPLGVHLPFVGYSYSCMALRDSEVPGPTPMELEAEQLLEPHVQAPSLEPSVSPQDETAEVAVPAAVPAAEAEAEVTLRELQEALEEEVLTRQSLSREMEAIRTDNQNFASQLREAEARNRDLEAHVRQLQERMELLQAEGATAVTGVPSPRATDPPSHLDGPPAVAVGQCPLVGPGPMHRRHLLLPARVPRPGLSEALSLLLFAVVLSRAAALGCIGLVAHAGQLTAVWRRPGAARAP
T2 sequence (P07333 539-972 limits assumed): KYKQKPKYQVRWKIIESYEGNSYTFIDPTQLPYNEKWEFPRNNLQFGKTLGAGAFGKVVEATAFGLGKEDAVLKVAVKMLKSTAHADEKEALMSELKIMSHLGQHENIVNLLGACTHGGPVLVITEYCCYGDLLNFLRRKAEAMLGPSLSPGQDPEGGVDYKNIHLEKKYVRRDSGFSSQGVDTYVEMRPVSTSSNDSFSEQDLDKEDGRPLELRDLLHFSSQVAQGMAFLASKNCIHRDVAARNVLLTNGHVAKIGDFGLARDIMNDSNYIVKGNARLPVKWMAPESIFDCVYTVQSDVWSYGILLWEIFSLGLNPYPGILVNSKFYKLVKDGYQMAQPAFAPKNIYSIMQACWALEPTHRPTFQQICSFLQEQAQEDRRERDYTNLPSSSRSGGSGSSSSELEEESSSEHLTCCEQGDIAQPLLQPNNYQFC
T15 sequence (P19784 whole entry): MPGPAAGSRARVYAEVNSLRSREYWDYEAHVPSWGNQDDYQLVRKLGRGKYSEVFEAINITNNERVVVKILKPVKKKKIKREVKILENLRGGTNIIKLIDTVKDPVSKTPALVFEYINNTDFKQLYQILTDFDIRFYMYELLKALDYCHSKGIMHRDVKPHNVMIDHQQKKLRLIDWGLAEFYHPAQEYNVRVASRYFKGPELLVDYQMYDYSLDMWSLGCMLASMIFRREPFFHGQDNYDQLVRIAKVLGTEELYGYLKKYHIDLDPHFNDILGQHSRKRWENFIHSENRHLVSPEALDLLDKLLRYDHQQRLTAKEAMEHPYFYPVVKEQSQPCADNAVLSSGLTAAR

SMILES: Nc1ccc2c(c1)NC(=O)/C(=C/c1cc(Br)c(O)c(Br)c1)O2 [HSB-13]
protection against neuronal loss [1]: protective
kinase inhibition (in words) [2]: most inhibited
kinase inhibition (in words) [3]: most inhibited
kinase inhibition (in words) [4]: most inhibited
kinases inhibited out of a panel of 20 kinases [5]: 3
protection [6]: protective
behavioral performance [7]: improved behavioral performance
neurodegeneration [7]: prevented neurodegeneration

remaining binding at 1 µM [8]: 100%
remaining binding at 1 µM [9]: 92%
remaining binding at 1 µM [11]: 26%
remaining binding at 1 µM [12]: 100%
remaining binding at 1 µM [14]: 100%
remaining binding at 1 µM [15]: 84%
remaining binding at 1 µM [16]: 100%
remaining binding at 1 µM [17]: 92%
remaining binding at 1 µM [18]: 100%
remaining binding at 1 µM [19]: 100%
remaining binding at 1 µM [20]: 79%
remaining binding at 1 µM [21]: 100%
remaining binding at 1 µM [22]: 100%
remaining binding at 1 µM [23]: 100%
kinase inhibition (in words) [24]: not inhibited
remaining binding at 1 µM [25]: 100%
remaining binding at 1 µM [26]: 100%
kinase inhibition (in words) [27]: does not inhibit
remaining binding at 1 µM [28]: 100%
remaining binding at 1 µM [29]: 100%
remaining binding at 1 µM [30]: 100%
remaining binding at 1 µM [31]: 86%
kinase inhibition (in words) [32]: does not inhibit
remaining binding at 1 µM [34]: 100%
kinase inhibition (in words) [35]: does not inhibit
remaining binding at 1 µM [36]: 100%
remaining binding at 1 µM [37]: 100%
remaining binding at 1 µM [38]: 100%
remaining binding at 1 µM ([39]; KINOMEscan DRAK2 (Entrez STK17B), 1 uM, read-out: % control): 83%
kinase inhibition (in words) ([39]; closely-related DRAK2 protein): not inhibited
remaining binding at 1 µM [40]: 100%
remaining binding at 1 µM [41]: 98%
remaining binding at 1 µM [42]: 100%
remaining binding at 1 µM [43]: 100%
remaining binding at 1 µM [45]: 100%
remaining binding at 1 µM [46]: 88%
remaining binding at 1 µM [47]: 100%
remaining binding at 1 µM [48]: 100%
remaining binding at 1 µM [49]: 100%
remaining binding at 1 µM [50]: 96%
remaining binding at 1 µM [51]: 100%
remaining binding at 1 µM [52]: 97%
remaining binding at 1 µM [53]: 87%
remaining binding at 1 µM [54]: 98%
remaining binding at 1 µM [55]: 89%
SMILES: Nc1ccc2c(c1)NC(=O)/C(=C/c1ccc(Cl)cc1)O2 [NGN-006, (2Z)-6-amino-2-[(4-chlorophenyl)methylidene]-3,4-dihydro-2H-1,4-benzoxazin-3-one]
neuroprotection (viability) [10]: protective
% control [13]: 100%
kinases inhibited substantially of the 451 kinases tested [33]: only DRAK1/STK17a
neuroprotection (viability) [44]: protective
